Source: publication PMC6199309, “A therapeutic approach to pantothenate kinase associated neurodegeneration” (Nature Communications, 2018)
≈ marks a conversion by molar mass, not a printed value.

Tests used:
MAP4K2 = biological target: T1, MAP4K2 (Homo sapiens, UniProt Q12851); assay: KINOMEscan; assay type: binding; details: read-out: %Ctrl @ 10000nM
T1 construct: purchased DiscoverX KINOMEscan

CAMK1G = biological target: T2, CAMK1G (Homo sapiens, UniProt Q96NX5); assay: KINOMEscan; assay type: binding; details: read-out: %Ctrl @ 10000nM
T2 construct: purchased DiscoverX KINOMEscan
T2 sequence (Q96NX5 whole entry): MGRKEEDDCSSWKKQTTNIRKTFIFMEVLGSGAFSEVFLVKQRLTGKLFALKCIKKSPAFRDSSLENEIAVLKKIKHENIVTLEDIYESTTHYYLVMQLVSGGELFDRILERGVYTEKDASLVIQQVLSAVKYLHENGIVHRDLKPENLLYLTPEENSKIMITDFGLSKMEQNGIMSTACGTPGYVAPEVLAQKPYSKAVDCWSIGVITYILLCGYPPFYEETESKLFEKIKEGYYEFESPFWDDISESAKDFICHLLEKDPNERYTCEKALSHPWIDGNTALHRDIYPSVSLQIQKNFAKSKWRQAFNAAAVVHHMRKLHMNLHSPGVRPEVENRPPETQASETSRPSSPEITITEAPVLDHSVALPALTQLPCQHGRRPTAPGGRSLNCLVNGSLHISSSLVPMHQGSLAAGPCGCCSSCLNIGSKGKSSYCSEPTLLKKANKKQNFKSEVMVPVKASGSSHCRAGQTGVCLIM

PDGFRA = biological target: T3, PDGFRA (Homo sapiens, UniProt P16234); assay: KINOMEscan; assay type: binding; details: read-out: %Ctrl @ 10000nM
T3 construct: purchased DiscoverX KINOMEscan

HEK293T cells = assay: Intracellular CoA levels in transfected HEK293T cells; assay type: cell-based, human; details: 10 μM, 24 h
Method: Chloroform 1.5 ml, 1.2 ml water and 30 pmol of [^13C2]acetyl-CoA (Sigma) was added, and centrifuged at 2000×g for 10 min. The top layer was loaded on a 2-(2-pyridyl) ethyl solid phase extraction column which was equilibrated with 1 ml 50% methanol/2% acetic acid. The column was washed twice with 1 ml 50% methanol/2% acetic acid and 1 ml water. […] Samples were resuspended in 90% methanol containing 15 mM ammonium hydroxide.

MAPKAPK5 = biological target: T4, MAPKAPK5 (Homo sapiens, UniProt Q8IW41); assay: KINOMEscan; assay type: binding; details: read-out: %Ctrl @ 10000nM
T4 construct: purchased DiscoverX KINOMEscan

PRKR = biological target: T5, PRKR (Homo sapiens, UniProt P19525); assay: KINOMEscan; assay type: binding; details: read-out: %Ctrl @ 10000nM
T5 construct: purchased DiscoverX KINOMEscan

ERBB4 = biological target: T6, ERBB4 (Homo sapiens, UniProt Q15303); assay: KINOMEscan; assay type: binding; details: read-out: %Ctrl @ 10000nM
T6 construct: purchased DiscoverX KINOMEscan

IRAK3 = biological target: T7, IRAK3 (Homo sapiens, UniProt Q9Y616); assay: KINOMEscan; assay type: binding; details: read-out: %Ctrl @ 10000nM
T7 construct: purchased DiscoverX KINOMEscan

CHEK2 = biological target: T8, CHEK2 (Homo sapiens, UniProt O96017); assay: KINOMEscan; assay type: binding; details: read-out: %Ctrl @ 10000nM
T8 construct: purchased DiscoverX KINOMEscan

CLK2 = biological target: T9, CLK2 (Homo sapiens, UniProt P49760); assay: KINOMEscan; assay type: binding; details: read-out: %Ctrl @ 10000nM
T9 construct: purchased DiscoverX KINOMEscan
T9 sequence (P49760 whole entry): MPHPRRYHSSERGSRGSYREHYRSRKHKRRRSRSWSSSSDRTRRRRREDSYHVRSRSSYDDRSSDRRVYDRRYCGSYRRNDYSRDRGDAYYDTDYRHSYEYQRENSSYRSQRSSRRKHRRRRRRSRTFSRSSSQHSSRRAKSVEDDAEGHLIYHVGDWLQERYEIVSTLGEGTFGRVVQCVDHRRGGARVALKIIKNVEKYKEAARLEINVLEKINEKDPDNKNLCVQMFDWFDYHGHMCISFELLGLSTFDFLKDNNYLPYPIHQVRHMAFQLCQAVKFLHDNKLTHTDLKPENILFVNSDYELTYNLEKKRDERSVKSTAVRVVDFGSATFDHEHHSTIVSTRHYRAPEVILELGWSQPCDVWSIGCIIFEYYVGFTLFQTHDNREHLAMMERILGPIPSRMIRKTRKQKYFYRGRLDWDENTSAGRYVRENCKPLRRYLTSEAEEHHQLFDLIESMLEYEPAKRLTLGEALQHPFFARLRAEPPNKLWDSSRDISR

MYLK = biological target: T10, MYLK (Homo sapiens, UniProt Q15746); assay: KINOMEscan; assay type: binding; details: read-out: %Ctrl @ 10000nM
T10 construct: purchased DiscoverX KINOMEscan

LYN = biological target: T11, LYN (Homo sapiens, UniProt P07948); assay: KINOMEscan; assay type: binding; details: read-out: %Ctrl @ 10000nM
T11 construct: purchased DiscoverX KINOMEscan

FER = biological target: T12, FER (Homo sapiens, UniProt P16591); assay: KINOMEscan; assay type: binding; details: read-out: %Ctrl @ 10000nM
T12 construct: purchased DiscoverX KINOMEscan

KIT(V559D,V654A) = biological target: T13, KIT(V559D,V654A) (Homo sapiens, UniProt P10721, V559D/V654A); assay: KINOMEscan; assay type: binding; details: read-out: %Ctrl @ 10000nM
T13 construct: purchased DiscoverX KINOMEscan

RIOK2 = biological target: T14, RIOK2 (Homo sapiens, UniProt Q9BVS4); assay: KINOMEscan; assay type: binding; details: read-out: %Ctrl @ 10000nM
T14 construct: purchased DiscoverX KINOMEscan
T14 sequence (Q9BVS4 whole entry): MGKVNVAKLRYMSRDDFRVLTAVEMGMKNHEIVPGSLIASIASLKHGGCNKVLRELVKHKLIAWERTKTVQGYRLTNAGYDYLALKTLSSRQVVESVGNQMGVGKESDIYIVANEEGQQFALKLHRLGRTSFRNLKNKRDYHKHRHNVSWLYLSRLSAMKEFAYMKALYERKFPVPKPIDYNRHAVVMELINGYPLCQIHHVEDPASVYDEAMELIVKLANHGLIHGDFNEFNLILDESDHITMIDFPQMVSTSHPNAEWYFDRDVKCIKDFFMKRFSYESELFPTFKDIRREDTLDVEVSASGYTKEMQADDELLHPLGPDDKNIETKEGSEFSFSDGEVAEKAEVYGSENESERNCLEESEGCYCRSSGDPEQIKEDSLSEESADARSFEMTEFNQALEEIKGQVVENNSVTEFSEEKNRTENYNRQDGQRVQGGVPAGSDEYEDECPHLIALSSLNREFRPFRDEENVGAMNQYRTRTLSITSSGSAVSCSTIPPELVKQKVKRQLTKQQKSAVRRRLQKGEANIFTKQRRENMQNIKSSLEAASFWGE

SGK3 = biological target: T15, SGK3 (Homo sapiens, UniProt Q96BR1); assay: KINOMEscan; assay type: binding; details: read-out: %Ctrl @ 10000nM
T15 construct: purchased DiscoverX KINOMEscan

PAK3 = biological target: T16, PAK3 (Homo sapiens, UniProt O75914); assay: KINOMEscan; assay type: binding; details: read-out: %Ctrl @ 10000nM
T16 construct: purchased DiscoverX KINOMEscan

EPHB4 = biological target: T17, EPHB4 (Homo sapiens, UniProt P54760); assay: KINOMEscan; assay type: binding; details: read-out: %Ctrl @ 10000nM
T17 construct: purchased DiscoverX KINOMEscan

[1] = biological target: T18, RPS6KA4(Kin.Dom.1-N-terminal) (Homo sapiens, UniProt O75676); assay: KINOMEscan; assay type: binding; details: read-out: %Ctrl @ 10000nM
T18 construct: RPS6KA4(Kin.Dom.1-N-terminal); purchased DiscoverX KINOMEscan

PIK3CA(C420R) = biological target: T19, PIK3CA(C420R) (Homo sapiens, UniProt P42336, C420R); assay: KINOMEscan; assay type: binding; details: read-out: %Ctrl @ 10000nM
T19 construct: purchased DiscoverX KINOMEscan

DDR1 = biological target: T20, DDR1 (Homo sapiens, UniProt Q08345); assay: KINOMEscan; assay type: binding; details: read-out: %Ctrl @ 10000nM
T20 construct: purchased DiscoverX KINOMEscan
T20 sequence (Q08345 19-913): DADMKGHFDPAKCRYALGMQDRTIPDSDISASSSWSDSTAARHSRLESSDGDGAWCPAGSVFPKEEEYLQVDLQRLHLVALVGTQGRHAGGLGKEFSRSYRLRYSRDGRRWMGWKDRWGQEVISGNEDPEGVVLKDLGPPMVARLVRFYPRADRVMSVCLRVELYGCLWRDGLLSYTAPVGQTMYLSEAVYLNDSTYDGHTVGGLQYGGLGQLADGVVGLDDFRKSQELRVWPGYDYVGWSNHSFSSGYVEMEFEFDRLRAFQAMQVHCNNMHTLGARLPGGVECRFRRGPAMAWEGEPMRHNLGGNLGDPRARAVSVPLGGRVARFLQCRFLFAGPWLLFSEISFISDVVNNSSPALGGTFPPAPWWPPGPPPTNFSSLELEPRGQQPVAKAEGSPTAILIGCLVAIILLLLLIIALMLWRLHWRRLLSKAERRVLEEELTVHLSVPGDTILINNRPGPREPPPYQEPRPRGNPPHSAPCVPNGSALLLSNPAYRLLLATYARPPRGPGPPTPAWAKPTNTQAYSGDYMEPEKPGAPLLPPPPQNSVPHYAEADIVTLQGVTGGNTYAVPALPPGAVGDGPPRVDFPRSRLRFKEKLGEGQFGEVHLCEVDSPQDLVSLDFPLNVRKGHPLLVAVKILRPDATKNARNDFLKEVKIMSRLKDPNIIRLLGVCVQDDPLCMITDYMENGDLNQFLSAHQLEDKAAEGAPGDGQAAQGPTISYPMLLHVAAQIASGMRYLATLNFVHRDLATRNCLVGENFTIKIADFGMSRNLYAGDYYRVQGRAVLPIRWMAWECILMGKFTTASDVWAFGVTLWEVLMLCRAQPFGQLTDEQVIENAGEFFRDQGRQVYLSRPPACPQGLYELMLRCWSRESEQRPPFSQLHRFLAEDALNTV

AURKB = biological target: T21, AURKB (Homo sapiens, UniProt Q96GD4); assay: KINOMEscan; assay type: binding; details: read-out: %Ctrl @ 10000nM
T21 construct: purchased DiscoverX KINOMEscan
T21 sequence (Q96GD4 whole entry): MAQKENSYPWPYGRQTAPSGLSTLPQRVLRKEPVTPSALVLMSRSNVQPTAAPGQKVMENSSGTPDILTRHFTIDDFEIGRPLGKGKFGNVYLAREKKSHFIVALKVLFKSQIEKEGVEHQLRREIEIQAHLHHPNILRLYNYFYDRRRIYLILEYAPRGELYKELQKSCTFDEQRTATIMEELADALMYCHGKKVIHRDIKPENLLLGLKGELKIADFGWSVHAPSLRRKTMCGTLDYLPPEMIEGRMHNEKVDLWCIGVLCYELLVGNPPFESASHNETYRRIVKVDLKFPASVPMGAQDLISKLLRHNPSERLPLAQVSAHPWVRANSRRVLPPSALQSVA

MAP4K4 = biological target: T22, MAP4K4 (Homo sapiens, UniProt O95819); assay: KINOMEscan; assay type: binding; details: read-out: %Ctrl @ 10000nM
T22 construct: purchased DiscoverX KINOMEscan

MST2 = biological target: T23, MST2 (Homo sapiens, UniProt Q13188); assay: KINOMEscan; assay type: binding; details: read-out: %Ctrl @ 10000nM
T23 construct: purchased DiscoverX KINOMEscan

[2] = biological target: T24, ABL1(Y253F)-phosphorylated (Homo sapiens, UniProt P00519, Y253F); assay: KINOMEscan; assay type: binding; details: read-out: %Ctrl @ 10000nM
T24 construct: purchased DiscoverX KINOMEscan

MET(Y1235D) = biological target: T25, MET(Y1235D) (Homo sapiens, UniProt P08581, Y1235D); assay: KINOMEscan; assay type: binding; details: read-out: %Ctrl @ 10000nM
T25 construct: purchased DiscoverX KINOMEscan

TAOK1 = biological target: T26, TAOK1 (Homo sapiens, UniProt Q7L7X3); assay: KINOMEscan; assay type: binding; details: read-out: %Ctrl @ 10000nM
T26 construct: purchased DiscoverX KINOMEscan

NEK3 = biological target: T27, NEK3 (Homo sapiens, UniProt P51956); assay: KINOMEscan; assay type: binding; details: read-out: %Ctrl @ 10000nM
T27 construct: purchased DiscoverX KINOMEscan

YSK4 = biological target: T28, YSK4 (Homo sapiens, UniProt Q56UN5); assay: KINOMEscan; assay type: binding; details: read-out: %Ctrl @ 10000nM
T28 construct: purchased DiscoverX scanMAX; host or cells: E. coli BL21-derived host (T7 phage) or HEK-293

ERK8 = biological target: T29, ERK8 (Homo sapiens, UniProt Q8TD08); assay: KINOMEscan; assay type: binding; details: read-out: %Ctrl @ 10000nM
T29 construct: purchased DiscoverX KINOMEscan

PCTK1 = biological target: T30, PCTK1 (Homo sapiens, UniProt Q00536); assay: KINOMEscan; assay type: binding; details: read-out: %Ctrl @ 10000nM
T30 construct: purchased DiscoverX KINOMEscan

[3] = biological target: T31, ABL1(H396P)-nonphosphorylated (Homo sapiens, UniProt P00519, H396P); assay: KINOMEscan; assay type: binding; details: read-out: %Ctrl @ 10000nM
T31 construct: purchased DiscoverX KINOMEscan

SIK2 = biological target: T32, SIK2 (Homo sapiens, UniProt Q9H0K1); assay: KINOMEscan KdELECT; assay type: binding
T32 construct: DNA tag for qPCR (T7 phage fusion or DNA label); purchased DiscoverX KdELECT; host or cells: E. coli BL21-derived (T7 phage) or HEK-293
T32 sequence (Q9H0K1 whole entry, the tested form may be a part): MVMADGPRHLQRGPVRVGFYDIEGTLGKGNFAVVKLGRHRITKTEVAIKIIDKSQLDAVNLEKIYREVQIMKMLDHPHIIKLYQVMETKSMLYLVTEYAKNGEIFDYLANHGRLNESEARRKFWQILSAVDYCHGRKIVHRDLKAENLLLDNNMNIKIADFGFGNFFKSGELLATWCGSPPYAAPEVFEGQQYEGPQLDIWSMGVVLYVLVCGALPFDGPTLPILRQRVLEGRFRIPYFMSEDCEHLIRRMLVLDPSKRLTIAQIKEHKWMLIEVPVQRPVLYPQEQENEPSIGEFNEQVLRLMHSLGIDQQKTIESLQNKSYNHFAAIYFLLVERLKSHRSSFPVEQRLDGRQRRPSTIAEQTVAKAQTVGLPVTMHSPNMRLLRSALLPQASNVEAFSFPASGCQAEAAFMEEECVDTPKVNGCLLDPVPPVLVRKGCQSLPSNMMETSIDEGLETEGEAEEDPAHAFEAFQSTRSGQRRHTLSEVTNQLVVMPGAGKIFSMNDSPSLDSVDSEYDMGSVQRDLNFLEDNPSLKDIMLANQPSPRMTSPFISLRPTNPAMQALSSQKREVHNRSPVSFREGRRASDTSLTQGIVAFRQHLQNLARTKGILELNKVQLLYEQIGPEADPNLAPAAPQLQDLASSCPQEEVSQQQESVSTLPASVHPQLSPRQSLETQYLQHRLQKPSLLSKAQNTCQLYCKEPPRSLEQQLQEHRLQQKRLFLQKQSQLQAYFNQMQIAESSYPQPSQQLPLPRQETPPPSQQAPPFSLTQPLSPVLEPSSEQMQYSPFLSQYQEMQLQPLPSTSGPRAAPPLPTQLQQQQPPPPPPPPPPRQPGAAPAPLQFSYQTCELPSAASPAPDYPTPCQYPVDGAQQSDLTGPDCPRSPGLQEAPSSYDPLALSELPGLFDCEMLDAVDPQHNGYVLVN

MYLK4 = biological target: T33, MYLK4 (Homo sapiens, UniProt Q86YV6); assay: KINOMEscan; assay type: binding; details: read-out: %Ctrl @ 10000nM
T33 construct: purchased DiscoverX KINOMEscan
T33 sequence (Q86YV6 whole entry): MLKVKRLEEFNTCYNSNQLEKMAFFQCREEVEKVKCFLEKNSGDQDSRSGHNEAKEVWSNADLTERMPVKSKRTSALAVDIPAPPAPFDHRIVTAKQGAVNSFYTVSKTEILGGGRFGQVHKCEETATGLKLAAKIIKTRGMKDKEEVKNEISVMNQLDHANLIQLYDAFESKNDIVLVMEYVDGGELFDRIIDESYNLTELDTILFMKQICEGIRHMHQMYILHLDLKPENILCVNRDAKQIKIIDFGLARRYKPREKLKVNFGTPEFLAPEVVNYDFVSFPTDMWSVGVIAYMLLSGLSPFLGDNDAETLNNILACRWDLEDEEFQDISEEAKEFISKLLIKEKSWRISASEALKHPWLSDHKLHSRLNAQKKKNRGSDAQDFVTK

EPHA6 = biological target: T34, EPHA6 (Homo sapiens, UniProt Q9UF33); assay: KINOMEscan; assay type: binding; details: read-out: %Ctrl @ 10000nM
T34 construct: purchased DiscoverX KINOMEscan

EPHA1 = biological target: T35, EPHA1 (Homo sapiens, UniProt P21709); assay: KINOMEscan; assay type: binding; details: read-out: %Ctrl @ 10000nM
T35 construct: purchased DiscoverX KINOMEscan
T35 sequence (P21709 26-976): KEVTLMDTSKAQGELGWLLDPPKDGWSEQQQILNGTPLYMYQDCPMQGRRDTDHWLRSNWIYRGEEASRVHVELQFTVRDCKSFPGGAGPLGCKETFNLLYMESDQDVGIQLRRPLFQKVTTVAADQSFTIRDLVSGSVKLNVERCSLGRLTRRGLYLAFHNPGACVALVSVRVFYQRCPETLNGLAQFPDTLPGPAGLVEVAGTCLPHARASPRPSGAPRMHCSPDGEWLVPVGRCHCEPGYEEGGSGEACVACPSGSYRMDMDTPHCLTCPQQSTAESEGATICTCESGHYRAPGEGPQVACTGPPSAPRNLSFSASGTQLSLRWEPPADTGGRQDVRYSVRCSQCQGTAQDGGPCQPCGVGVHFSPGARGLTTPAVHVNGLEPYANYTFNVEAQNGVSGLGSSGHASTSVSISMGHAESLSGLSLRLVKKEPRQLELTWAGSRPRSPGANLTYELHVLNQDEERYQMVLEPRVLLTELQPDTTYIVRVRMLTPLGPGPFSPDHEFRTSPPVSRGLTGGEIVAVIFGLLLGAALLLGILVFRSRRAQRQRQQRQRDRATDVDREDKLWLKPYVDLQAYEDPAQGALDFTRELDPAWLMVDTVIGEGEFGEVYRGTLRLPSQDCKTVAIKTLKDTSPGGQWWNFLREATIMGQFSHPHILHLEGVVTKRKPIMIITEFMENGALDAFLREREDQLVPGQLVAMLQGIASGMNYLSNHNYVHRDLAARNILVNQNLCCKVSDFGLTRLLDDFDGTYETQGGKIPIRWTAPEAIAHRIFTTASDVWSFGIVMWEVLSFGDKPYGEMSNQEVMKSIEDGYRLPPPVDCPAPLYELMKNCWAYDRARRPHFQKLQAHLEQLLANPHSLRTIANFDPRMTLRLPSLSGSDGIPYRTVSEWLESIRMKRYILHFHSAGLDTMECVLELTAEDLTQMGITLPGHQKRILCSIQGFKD

IRAK1 = biological target: T36, IRAK1 (Homo sapiens, UniProt P51617); assay: KINOMEscan; assay type: binding; details: read-out: %Ctrl @ 10000nM
T36 construct: purchased DiscoverX KINOMEscan

SGK = biological target: T37, SGK (Homo sapiens, UniProt O00141); assay: KINOMEscan; assay type: binding; details: read-out: %Ctrl @ 10000nM
T37 construct: purchased DiscoverX KINOMEscan

ULK1 = biological target: T38, ULK1 (Homo sapiens, UniProt O75385); assay: KINOMEscan; assay type: binding; details: read-out: %Ctrl @ 10000nM
T38 construct: DNA label for qPCR (T7 phage fusion or DNA tag); purchased DiscoverX scanMAX; host or cells: E. coli BL21-derived (T7 phage) or HEK-293

What does the source list for `CC(C)c1ccc(CC(=O)N2CCN(c3ccc(C#N)nn3)CC2)cc1` [PZ-2891, 6-(4-(2-(4-isopropylphenyl)acetyl)piperazin-1-yl)pyridazine-3-carbonitrile]?
remaining binding at 10 µM (MAP4K2): 77%; remaining binding at 10 µM (CAMK1G): 83%; remaining binding at 10 µM (PDGFRA): 70%; intracellular CoA, control (empty vector) HEK293T cells (HEK293T cells): significantly increased the levels of intracellular CoA; remaining binding at 10 µM (MAPKAPK5): 74%; remaining binding at 10 µM (PRKR): 100%; remaining binding at 10 µM (ERBB4): 100%; remaining binding at 10 µM (IRAK3): 42%; remaining binding at 10 µM (CHEK2): 79%; remaining binding at 10 µM (CLK2): 94%; remaining binding at 10 µM (MYLK): 75%; remaining binding at 10 µM (LYN): 79%; remaining binding at 10 µM (FER): 88%; remaining binding at 10 µM (KIT(V559D,V654A)): 73%; remaining binding at 10 µM (RIOK2): 86%; remaining binding at 10 µM (SGK3): 71%; remaining binding at 10 µM (PAK3): 88%; remaining binding at 10 µM (EPHB4): 97%; solubility (Solubility at pH 7.4): 23 µM (≈ 8.04 µg/mL); remaining binding at 10 µM [1]: 96%; remaining binding at 10 µM (PIK3CA(C420R)): 76%; remaining binding at 10 µM (DDR1): 81%; remaining binding at 10 µM (AURKB): 89%; remaining binding at 10 µM (MAP4K4): 100%; remaining binding at 10 µM (MST2): 92%; remaining binding at 10 µM [2]: 82%; remaining binding at 10 µM (MET(Y1235D)): 66%; remaining binding at 10 µM (TAOK1): 93%; remaining binding at 10 µM (NEK3): 69%; remaining binding at 10 µM (YSK4): 89%; remaining binding at 10 µM (ERK8): 81%; remaining binding at 10 µM (PCTK1): 76%; remaining binding at 10 µM [3]: 74%; Kd (SIK2; SIK2): > 30 µM; Kd (SIK2; SIK2 Replicate ID = 1): > 30 µM; Kd (SIK2; SIK2 Replicate ID = 2): > 30 µM; remaining binding at 10 µM (MYLK4): 92%; remaining binding at 10 µM (EPHA6): 89%; remaining binding at 10 µM (EPHA1): 95%; remaining binding at 10 µM (IRAK1): 91%; remaining binding at 10 µM (SGK): 61%; remaining binding at 10 µM (ULK1): 82%
